Like-named read-outs stand apart in the source and are kept apart here.
Key:
[1] = tested on: malignant cells from B-cell chronic lymphocytic leukemia (B-CLL); settings: in vitro; cited from earlier work
CDK1/CyclinB = target: T1, CDK1/CyclinB (Homo sapiens, UniProt P06493); experiment: Activated CDK1/CyclinB kinase inhibitory activity assay; type: biochemical
T1 construct: purchased Upstate Discovery
Description: CDK1/CyclinB assay is identical to the CDK2/CyclinA above except that CDK1/CyclinB (Upstate Discovery) is used and the enzyme is diluted to 6.25 nM.

HCT-116 cell line = experiment: Anti-proliferative activity, Alamar Blue assay; type: cell-based, human; settings: for IC50: read-out: HCT-116 cell proliferation IC50, 72 hours with compound
Description: (§1) Inhibition of cell growth is measured using the Alamar Blue assay (Nociari, M. M, Shalev, A., Benias, P., Russo, C. Journal of Immunological Methods 1998, 213, 157-167). The method is based on the ability of viable cells to reduce resazurin to its fluorescent product resorufin. For each proliferation assay cells are plated onto 96 well plates and allowed to recover for 16 hours prior to the addition of inhibitor compounds for a further 72 hours. At the end of the incubation period 10% (v/v) Alamar Blue is added and incubated for a further 6 hours prior to determination of fluorescent product at 535nM ex/590nM em. In the case of the non-proliferating cell assay cells are maintained at confluence for 96 hour prior to the addition of inhibitor compounds for a further 72 hours. The number of viable cells is determined by Alamar Blue assay as before. Cell lines can be obtained from the ECACC (European Collection of cell Cultures).
as §1, with “535 nM ex/590 nM” for “535nM ex/590nM”, “EC ACC” for “ECACC”

[2] = Determination of oral bioavailability; type: in vivo; settings: balb/c, mouse, plasma, 5 mg/kg, mice
Description: The oral bioavailability of the compound of formula (I) may be determined as follows.
The test compound is administered as a solution both I.V. and orally to balb/c mice at the following dose level and dose formulations; • 1 mg/kg IV formulated in 10%DMSO/90% (2-hydroxypropyl)-β-cyclodextrin (25% w/v); and • 5 mg/kg PO formulated in 10% DMSO/20% water/70% PEG200.
At various time points after dosing, blood samples are taken in heparinised tubes and the plasma fraction is collected for analysis. The analysis is undertaken by LC-MS/MS after protein precipitation and the samples are quantified by comparison with a standard calibration line constructed for the test compound. The area under the curve (AUC) is calculated from the plasma level vs time profile by standard methods. The oral bioavailability as a percentage is calculated from the following equation: […]

[3] = tested on: human tumour derived cell lines; experiment: Xenograft studies; type: in vivo, nude mice; settings: sub-cutaneous xenografts, dosed orally
Source text: These biomarkers include suppression of phosphorylation of substrates of the cyclin dependent kinases e.g. retinoblastoma protein. The compound is effective when given in a range of different schedules including chronic dosing for several weeks.

[4] = Vapour sorption/desorption analysis; type: physicochemical; settings: 25 °C
Description: Approximately 20 mg of sample was placed into a wire-mesh vapour sorption balance pan and loaded into an ‘IgaSorp’ vapour sorption balance (Hiden Analytical Instruments) held at 25±0.1° C. The sample was then dried by maintaining a 0% humidity environment (using mass flow control apparatus) until no further weight change was recorded. Subsequently, the sample was then subjected to a ramping profile from 0-90% relative humidity (% RH) at 10% RH increments, maintaining the sample at each step until equilibration had been attained (99.5% step completion).
Upon reaching equilibration, the % RH within the apparatus was ramped to the next step and the equilibration procedure repeated. After completion of the sorption cycle, the sample was then dried using the same procedure. The weight change during the sorption/desorption cycles was then monitored, allowing for the hygroscopic nature of the sample to be determined.

[5] = tested on: transcription in HCT-116 cells

T1 sequence (P06493 whole entry): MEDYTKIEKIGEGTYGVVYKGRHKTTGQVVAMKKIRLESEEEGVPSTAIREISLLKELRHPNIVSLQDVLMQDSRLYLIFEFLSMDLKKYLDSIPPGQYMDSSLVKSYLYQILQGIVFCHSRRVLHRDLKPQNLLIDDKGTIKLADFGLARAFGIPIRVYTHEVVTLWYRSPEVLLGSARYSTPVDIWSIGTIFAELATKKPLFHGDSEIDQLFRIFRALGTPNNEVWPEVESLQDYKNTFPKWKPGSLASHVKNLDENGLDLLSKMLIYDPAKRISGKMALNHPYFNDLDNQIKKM
T1 sequence (P14635 whole entry partner): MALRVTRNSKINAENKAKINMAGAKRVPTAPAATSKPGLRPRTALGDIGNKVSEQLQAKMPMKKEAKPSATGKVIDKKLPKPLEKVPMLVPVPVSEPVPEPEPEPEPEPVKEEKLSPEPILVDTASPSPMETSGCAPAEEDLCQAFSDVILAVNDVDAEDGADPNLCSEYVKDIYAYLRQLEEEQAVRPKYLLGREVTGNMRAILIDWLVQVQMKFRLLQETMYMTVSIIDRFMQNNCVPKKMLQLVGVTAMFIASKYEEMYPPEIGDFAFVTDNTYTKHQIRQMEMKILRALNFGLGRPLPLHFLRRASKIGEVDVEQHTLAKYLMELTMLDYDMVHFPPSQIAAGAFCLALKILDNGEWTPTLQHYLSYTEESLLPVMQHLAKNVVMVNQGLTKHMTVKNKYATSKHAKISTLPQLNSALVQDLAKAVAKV

## CC[C@H](CO)Nc1nc(NCc2ccccc2)c2ncn(C(C)C)c2n1 [CYC 202]
[1]
  Apoptosis of B-CLL cells: induce in vitro apoptosis

## CN1CC[C@H](c2c(O)cc(O)c3c(=O)cc(-c4ccccc4Cl)oc23)[C@H](O)C1 [Flavopiridol]
[1]
  Apoptosis of B-CLL cells: induce in vitro apoptosis

## CS(=O)(=O)N1CCC(NC(=O)c2n[nH]cc2NC(=O)c2c(Cl)cccc2Cl)CC1 [compound of the invention, 4-(2,6-dichloro-benzoylamino)-1H-pyrazole-3-carboxylic acid (1-methanesulphonyl-piperidin-4-yl)-amide]
CDK1/CyclinB
  IC50: < 1000 nM
HCT-116 cell line
  More potent anti-proliferative effect on HCT-116 compared to difluoro-analogue: 6-7 fold
  IC50: < 1000 nM
HCT-116 cell line; listed as Compound of the Invention
  IC50: 110 nM
[2]
  bioavailability: 40 to 50%
[3]
  Effect on tumour growth in xenografts: inhibition of tumour growth
[4]; 0% RH
  Weight loss during initial drying: approximately 0.01%
[4]; upon equilibration at 90% RH
  Total weight increase: 0.24%
[5]
  IC50 for transcription higher than IC50 for proliferation: ~100 fold

From patent US20090318500A1, “4-(2, 6-Dichloro-benzoylamino)-1H-pyrazole-3-carboxylic acid (1-methanesulphonyl-piperidin-4-yl)-amide for the Treatment of Cancer” (Astex Therapeutics limited, priority 2006, published 2009)
